Laboratory results published in PubChem BioAssay AID2740 (NMMLSC, 2010).
Calls of active or inactive are those of the source.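 How the source made its calls: active means compounds whose fitted half-maximal concentration for changing the GFP signal is at or below a set limit; inactive means the rest.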

assay: TOR pathway RPL19A-GFP modulators, concentration series – cell-based, S. cerevisiae, flow cytometry, MLPCN hits, dose response (AID 2740);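 further: background is signal of the same compound in parental non-GFP s288c yeast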; settings: S. cerevisiae RPL19A-GFP strain, flow cytometry fluorescence, 3 h; at 33 µM (top of the series)

SMILES	GFP fluorescence, lower = active (kMESF (background-subtracted))
Cc1ccc(S(=O)(=O)N2CCCC2C(=O)NCc2ccncc2)cc1 (stereo unspecified)	39.8 (inactive)
CCCCCCCCC/C(=N\O)c1ccccn1	38.8 (inactive)
CCN(CC)c1ccc2cc(-c3nc4ccccc4[nH]3)c(=O)oc2c1	42.6 (inactive)
Cc1ccc(N2C(=O)CC(Sc3ncn[nH]3)C2=O)cc1C (stereo unspecified)	49.3 (inactive)
CCN(CC(=O)NC(C)(C)C)C(=O)COc1c(Cl)cc(Cl)c2ccc(C)nc12	50.3 (inactive)
Cc1c(C)c2ccc(Oc3ccc([N+](=O)[O-])cc3C(F)(F)F)c(C)c2oc1=O	39.5 (inactive)
C=C1C(O)[C@@H]2O[C@]3(CC[C@H](/C=C/C(C)[C@@H]4CC(C)=CC5(O[C@H](C[C@@](C)(O)C(=O)O)CCC5O)O4)O3)CC[C@H]2O[C@@H]1C(O)CC(C)[C@H]1OC2(CCCCO2)CCC1C (stereo partly specified)	41.3 (inactive)
O=C(NC(=S)NNC(=O)c1cnccn1)c1ccc(Cl)cc1	48.5 (inactive)
Cc1ccccc1[C@]1(C)ON(c2ccccc2C(F)(F)F)C1=O	42.8 (inactive)
C/C(=N\Nc1ncnc2sc(C)c(C)c12)c1ccccn1	-2.55 (inactive)
O=C(OCn1ncc(Br)c(Br)c1=O)c1c(F)cccc1F	37.9 (inactive)
COc1cc(C=C2C(=O)c3ccccc3C2=O)cc(OC)c1OC	43.2 (inactive)
CC1(C)OC(c2ccccc2)=C/C(=C/C=C2C(=O)NC(=S)NC2=O)O1	37 (inactive)
O=[N+]([O-])c1cc(CN2CCN(c3ccccc3)CC2)c(O)c2ncccc12	45.6 (inactive)
O=S(=O)(/N=C(/Sc1ccccc1)c1ccccc1)c1ccccc1	34.5 (inactive)
Cc1cc(C2CCCCC2)n(O)c(=O)c1	42.8 (inactive)
O=C(NC(=S)Nc1ccc2oc(=O)ccc2c1)c1cccc(Cl)c1	37.2 (inactive)
O=S(=O)(c1ccccc1)c1ccc(C(F)(F)F)cn1	45.7 (inactive)
CCn1c(=O)c(C(C)=O)c(O)c2ccccc21	47 (inactive)
Cc1nc2ccc(NC(=O)c3oc4ccc(F)cc4c3C)cc2s1	39 (inactive)
Oc1c(C(Nc2cccc(C(F)(F)F)c2)c2ccncc2)ccc2cccnc12 (stereo unspecified)	45.3 (inactive)

SMILES	GFP fluorescence, lower = active (kMESF (background-subtracted))
O=C(OCn1ncc(Br)c(Br)c1=O)c1ccc(F)cc1	37.3 (inactive)
O=c1[nH]c(-c2ccc(Cl)cc2)cs1	41.6 (inactive)
CCc1ccc(OCC(=O)NNC(=S)NC(=O)C2CC2)c(Br)c1	45.8 (inactive)
O=C(/C=C/Sc1ncn[nH]1)c1ccc(Cl)cc1	29 (inactive)
O=C(/C=C/c1ccc(F)cc1)NC(=S)NNC(=O)c1cnccn1	36.8 (inactive)
COc1ccc2c(c1)c(/C=C/c1cc[n+](C)cc1)cn2C	40 (inactive)
Cc1ccccc1OCCOC(=O)c1ccc(S(=O)(=O)N2CCCC2)cc1	43.3 (inactive)
O=C1N(c2ccccc2C(F)(F)F)O[C@]1(c1ccccc1)C1CCCC1	36.6 (inactive)
Cc1ccc(N=Nc2ccc(O)c3ncccc23)cc1	39.8 (inactive)
Oc1c(I)cc(I)c2cccnc12	23 (inactive)
CCCc1ccc(OCC(=O)NNC(=S)NC(=O)c2ccco2)cc1	30.3 (inactive)
O=C(O)c1ccc(COc2ccccc2C=C2C(=O)c3ccccc3C2=O)cc1	38.9 (inactive)
CC(OC(=O)c1ccco1)C(=O)Nc1nc(-c2ccccc2)cs1 (stereo unspecified)	37.1 (inactive)
CC(C)(C)c1cc(C(c2cccnc2)N2CCN(CCO)CC2)cc(C(C)(C)C)c1O (stereo unspecified)	4.63 (inactive)
CCOc1cc(C=C2C(=O)c3ccccc3C2=O)ccc1OCC(=O)Nc1ccc(C)cc1	43.8 (inactive)
Cc1ccc(/C=C2\SC(=S)N(Cc3ccccc3)C2=O)o1	39.4 (inactive)
O=C(Nc1nc2ccc(F)cc2s1)c1ccccn1	48.2 (inactive)
Cc1ccc(-c2nc(C)sc2CC(=O)Nc2nnc(C)s2)cc1	37.9 (inactive)
Oc1c(Br)cc(Br)cc1C=Nc1ccc2c(c1)OCO2	40 (inactive)
COc1cc(NC(=O)c2cccc(C)c2)ccc1NC(=O)c1cc2ccccc2o1	39.6 (inactive)
